Experimental findings from patent US5409947A, “Cycloheptimidazole derivatives, method of manufacturing the same and therapeutic agents containing these compounds” (Kotobuki Seiyaku Co., Ltd., priority 1992, dated 1995) are described below.

For orientation: pA2 means a measure of antagonist potency on a negative log scale.

This assay concerns the target T1, angiotensin II receptor (Oryctolagus cuniculus, UniProt P34976).
T1 construct: Rabbit aorta thoracic is isolated; from tissue; host or cells: isolated rabbit thoracic aorta
T1 sequence (P34976 1-359): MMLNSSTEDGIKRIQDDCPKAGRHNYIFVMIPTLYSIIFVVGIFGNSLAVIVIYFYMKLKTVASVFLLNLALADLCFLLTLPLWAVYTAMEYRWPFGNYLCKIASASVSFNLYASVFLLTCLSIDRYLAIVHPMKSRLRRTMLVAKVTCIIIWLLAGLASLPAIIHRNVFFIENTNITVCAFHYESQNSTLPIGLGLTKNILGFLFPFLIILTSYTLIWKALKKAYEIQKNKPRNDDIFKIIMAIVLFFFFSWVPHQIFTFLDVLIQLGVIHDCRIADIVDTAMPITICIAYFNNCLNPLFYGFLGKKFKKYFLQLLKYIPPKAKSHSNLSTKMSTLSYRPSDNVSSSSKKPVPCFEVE
Nature of the assay: Angiotensin II receptor antagonistic activity: inhibition of angiotensin II-induced contraction of isolated rabbit thoracic aorta. It counts as cell-based. As to conditions: isolated rabbit thoracic aorta contracted by angiotensin II, from dose-response curve (Schild); for Kb: read-out: pA2 (converted). From the text: Angiotensin II receptor antagonistic activity experiments are carded out according to P. C. Wong et al. (Hypertension. 15, 823 (1990)).
Rabbit aorta thoracic is isolated, contracted by angiotensin II. The inhibition of contraction by the compound (1) is expressed as pA2 from dose-response curve (Schild, Brit. J. Pharmacol. 14, 48 (1959)).

Structures can show the parent of a compound that is named as a salt.

Turning to `CCCCc1nc2ccccc(=O)c2n1Cc1ccc(-c2ccccc2-c2nn[nH]n2)cc1` [Compound 4, 5-[2-(4-(2-Butyl-8-oxo-1(8H )-cycloheptimidazolyl)methylbiphenylyl)]tetrazole], the Kb was 0.501 nM. With `CCCCCc1nc2c(n1Cc1ccc(-c3ccccc3-c3nn[nH]n3)cc1)C(=O)CCCC2` [Compound 19, 5-[2-(4-(2-Pentyl-8-oxo-5,6,7,8-tetrahydro-1-cycloheptimidazolyl)methylbiphenylyl)]tetrazole], the Kb was 0.398 nM.

Consider `CCCCc1nc2c(n1Cc1ccc(-c3ccccc3-c3nn[nH]n3)cc1)CCCCC2O` (centres unmarked) [Compound 27, 5-[2-(4-(2-Butyl-4-hydroxy-1,4,5,6,7,8-hexahydro-1-cycloheptimidazolyl)methylbiphenylyl)]tetrazole], for which the Kb was 63.1 nM. Turning to `CCc1nc2ccccc(=O)c2n1Cc1ccc(-c2ccccc2-c2nn[nH]n2)cc1` [Compound 2, 5-[2-(4-(2-Ethyl-8-oxo-1(8H)-cycloheptimidazolyl)methylbiphenylyl)]tetrazole], the Kb was 2 nM. The same measure, in the same setting: the value for `CC(C)c1nc2c(n1Cc1ccc(-c3ccccc3-c3nn[nH]n3)cc1)C(=O)CCCC2` [Compound 24] was 1.78 nM; that for `Cc1nc2c(n1Cc1ccc(-c3ccccc3-c3nn[nH]n3)cc1)C(=O)CCCC2` [Compound 15, 5-[2-(4-(2-Methyl-8-oxo-5,6,7,8-tetrahydro-1-cycloheptimidazolyl)methylbiphenylyl)]tetrazole] was 5.01 nM; that for `CCCCc1nc2c(n1Cc1ccc(-c3ccccc3-c3nn[nH]n3)cc1)C(O)CCCC2` (centres unmarked) [Compound 26, 5-[2-(4-(2-Butyl-8-hydroxy-1,4,5,6,7,8-hexahydro-1-cycloheptimidazolyl)methylbiphenylyl)]tetrazole] was 9.77 nM. Regarding `CCCCc1nc2c(n1Cc1ccc(-c3ccccc3-c3nn[nH]n3)cc1)CCCCC2` [Compound 11, 5-[2-(4-(2-Butyl-1,4,5,6,7,8-hexahydro-1-cycloheptimidazolyl)methylbiphenylyl)]tetrazole], the Kb is 20 nM.

`CCCCc1nc2c(n1Cc1ccc(-c3ccccc3-c3nn[nH]n3)cc1)CCCCC2=O` [Compound 20, 5-[2-(4-(2-Butyl-4-oxo-5,6,7,8-tetrahydro-1-cycloheptimidazolyl)methylbiphenylyl)]tetrazole]: the Kb is 63.1 nM.

As for `CCCCc1nc2c(n1Cc1ccc(-c3ccccc3-c3nn[nH]n3)cc1)C(=O)CCCC2` [Compound 18, 5-[2-(4-(2-Butyl-8-oxo-5,6,7,8-tetrahydro-1-cycloheptimidazolyl)methylbiphenylyl)]tetrazole], the Kb was 0.501 nM. `Cc1nc2ccccc(=O)c2n1Cc1ccc(-c2ccccc2-c2nn[nH]n2)cc1` [Compound 1, 5-[2-(4-(2-Methyl-8-oxo-1(8H)-cycloheptimidazolyl)methylbiphenylyl)]tetrazole]: the pA2 came to 7.95. In the case of `CCCc1nc2c(n1Cc1ccc(-c3ccccc3-c3nnn[nH]3)cc1)C(=O)CCCC2` [Compound 17, 5-[2-(4-(2-Propyl-8-oxo-5,6,7,8-tetrahydro-1-cycloheptimidazolyl)methylbiphenylyl)]tetrazole], the Kb was 0.126 nM.

Turning to `CC(C)c1nc2ccccc(=O)c2n1Cc1ccc(-c2ccccc2-c2nn[nH]n2)cc1` [Compound 9, 5-[2-(4-(2-Isopropyl-8-oxo-1(8H)-cycloheptimidazolyl)methylbiphenylyl)]tetrazole], the Kb was 7.59 nM. Same read-out and setting: the value for `CC(C)Cc1nc2c(n1Cc1ccc(-c3ccccc3-c3nn[nH]n3)cc1)C(=O)CCCC2` [Compound 25] was 0.851 nM; that for `CCc1nc2c(n1Cc1ccc(-c3ccccc3-c3nn[nH]n3)cc1)C(=O)CCCC2` [Compound 16, 5-[2-(4-(2-Ethyl-8-oxo-5,6,7,8-tetrahydro-1-cycloheptimidazolyl)methylbiphenylyl)]tetrazole] was 1 nM.

For the compound `CCCc1nc2ccccc(=O)c2n1Cc1ccc(-c2ccccc2-c2nn[nH]n2)cc1` [Compound 3, 5-[2-(4-(2-Propyl-8-oxo-1(8H)-cycloheptimidazolyl)methylbiphenylyl)]tetrazole], the Kb is 0.331 nM. Consider `CCCCc1nc2c(n1Cc1ccc(-c3ccccc3-c3nn[nH]n3)cc1)C(=O)CCCC2` [18 - K salt], for which the Kb is 0.316 nM.
